Here are results for two molecules from article PMC6770214, “An Aromatic Aldehyde Synthase Controls the Synthesis of Hydroxytyrosol Derivatives Present in Virgin Olive Oil” (Antioxidants, 2019).

The target of one data set is T1, OeAAS (Olea europaea, UniProt A0A8S0T2W9).
T1 construct: gene OLEA9_A000744; codon-optimised synthetic gene in pET-28a(+)-TEV (NdeI-XhoI), His-tagged, E. coli BL21(DE3), Ni-NTA
T1 sequence (A0A8S0T2W9 1-487): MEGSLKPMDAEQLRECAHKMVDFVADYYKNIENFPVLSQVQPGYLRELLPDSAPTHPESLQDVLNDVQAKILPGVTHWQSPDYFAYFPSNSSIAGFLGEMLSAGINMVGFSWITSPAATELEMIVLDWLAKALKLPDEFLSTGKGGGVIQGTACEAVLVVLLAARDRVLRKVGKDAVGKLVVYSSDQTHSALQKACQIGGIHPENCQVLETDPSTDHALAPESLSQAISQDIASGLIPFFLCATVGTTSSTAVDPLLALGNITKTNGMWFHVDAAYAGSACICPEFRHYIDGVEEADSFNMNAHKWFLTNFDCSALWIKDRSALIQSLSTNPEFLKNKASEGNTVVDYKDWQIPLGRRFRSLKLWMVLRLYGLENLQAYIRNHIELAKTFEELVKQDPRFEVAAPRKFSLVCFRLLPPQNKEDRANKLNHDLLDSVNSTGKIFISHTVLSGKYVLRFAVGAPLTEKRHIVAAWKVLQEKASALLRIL
The data set is described as follows: loss and restoration of enzyme activity without / with PLP. Particulars: PLP omitted during purification or in reaction medium. Type of data set: biochemical.

Substrate in data set [1]: N[C@@H](Cc1ccc(O)c(O)c1)C(=O)O
Description: HPLC-DAD quantification of aldehyde product. To be noted: 50 mM sodium phosphate pH 6.8, 200 uM PLP, 30 °C, 20 min, L-DOPA 0.05-5 mM. Type of data set: biochemical, Olea europaea.

In the case of `Cc1ncc(COP(=O)(O)O)c(C=O)c1O` [PLP], on OeAAS, the “loss and restoration of enzyme activity without / with PLP” value is listed as “absence of PLP during purification or in the reaction medium resulted in a total loss”.

B1: OeAAS (Olea europaea subsp. europaea) (protein)
chain: T1 sequence (A0A8S0T2W9 1-487)
notes: codon-optimised synthetic gene in pET-28a(+)-TEV (NdeI-XhoI), His-tagged, E. coli BL21(DE3), Ni-NTA
Usually Km stands for the substrate concentration at which the rate is half of its maximum. In the case of B1, the Km in data set [1] came to 150 µM.
